Measured values from US11369565B2, “Amino-pyrimidine skeletal muscle modulators” (Cytokinetics, Inc., priority 2010, dated 2022).

test system: rabbit skeletal myofibrils (approximately 90% fast fibers); assay: Activation of fast skeletal myofibrils (PUMA coupled-enzyme ATPase assay at pCa25); assay type: biochemical; settings: concentration at which the compound increased the enzymatic activity by 40%; calcium at pCa25; PM12 buffer pH 6.8
Summary of the method: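 In pH 6.8 PM12 buffer (12 mM Pipes, 2 mM MgCl2, 1 mM DTT), ADP from myosin regenerated via pyruvate kinase/lactate dehydrogenase, with absorbance change at 340 nm from NADH oxidation as read-out. Calcium set at pCa25; Triton-washed rabbit skeletal myofibrils (about 90% fast fibres) used.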

How did the “Mean AC1.4” value turn out when COc1ccc(C)nc1-c1cnc(NC[C@]2(c3ncccc3F)C[C@H](F)C2)nc1 [{[3-fluoro-1-(3-fluoro(2-pyridyl))cyclobutyl]methyl}[5-(3-methoxy-6-methyl(2-pyridyl))pyrimidin-2-yl]amine] was run?
Its value is “C (C=10-20 uM)”.

For O=C(Nc1nncs1)c1cnc(NCC2(c3ncccc3F)CCC2)nc1 [[2-({[(3-fluoro(2-pyridyl))cyclobutyl]methyl}amino)pyrimidin-5-yl]-N-(1,3,4-thiadiazol-2-yl)carboxamide], which “Mean AC1.4” value is on record?
The value was “B (B=1-10 uM)”.

How did the “Mean AC1.4” value turn out when NC(=O)c1ccccc1-c1cnc(NC[C@]2(c3ncccc3F)C[C@H](F)C2)nc1 [2-[2-({[3-fluoro-1-(3-fluoro(2-pyridyl))cyclobutyl]methyl}amino)pyrimidin-5-yl]benzamide] was run?
Its value is “C (C=10-20 uM)”.

How did the “Mean AC1.4” value turn out when Nc1cnc(-c2cnc(NC[C@]3(c4ncccc4F)C[C@H](F)C3)nc2)cn1 [[5-(5-aminopyrazin-2-yl)pyrimidin-2-yl]{[3-fluoro-1-(3-fluoro(2-pyridyl))cyclobutyl]methyl}amine] was run?
Its value is “B (B=1-10 uM)”.

With CC(C)(Nc1ncc(-c2cnn(CCO)c2)cn1)c1ncccc1Cl [2-[4-(2-{[1-(3-chloro(2-pyridyl))-isopropyl]amino}pyrimidin-5-yl)pyrazolyl]ethan-1-ol] as the molecule, how does the “Mean AC1.4” value read?
Its value is “D (D=>20 uM)”.

How did the “Mean AC1.4” value turn out when CNC(=O)c1ccc(F)c(-c2cnc(NC[C@]3(c4ncccc4F)C[C@H](F)C3)nc2)c1 [{4-fluoro-3-[2-({[3-fluoro-1-(3-fluoro(2-pyridyl))cyclobutyl]methyl}amino)pyrimidin-5-yl]phenyl}-N-methylcarboxamide] was run?
The value was “A (A=<1 uM)”.

For CCOC(=O)c1cc(-c2cnc(NC(C)(C)c3ncccc3Cl)nc2)no1 [ethyl 3-(2-{[1-(3-chloro(2-pyridyl))-isopropyl]amino}pyrimidin-5-yl)isoxazole-5-carboxylate], which “Mean AC1.4” value is on record?
The value was “D (D=>20 uM)”.

Cn1nc(C(N)=O)cc1-c1cnc(NC(C)(C)c2ncccc2Cl)nc1 [5-(2-{[1-(3-chloro(2-pyridyl))-isopropyl}amino}pyrimidin-5-yl)-1-methylpyrazole-3-carboxamide] was tested. Which “Mean AC1.4” value did it give?
Its value is “D (D=>20 uM)”.

Which “Mean AC1.4” value does the source give for COC(=O)Cc1ccc(F)c(-c2cnc(NC(C)(C)c3ncccc3F)nc2)c1 [methyl 2-[4-fluoro-3-(2-{[1-(3-fluoro(2-pyridyl))-isopropyl]amino}pyrimidin-5-yl)phenyl]acetate] here?
Its value is “C (C=10-20 uM)”.

For CC(=O)NCc1cnn(-c2cnc(NC(C)(C)c3ncccc3Cl)nc2)c1 [N-{[1-(2-{[1-(3-chloro(2-pyridyl))-isopropyl]amino}pyrimidin-5-yl)pyrazol-4-yl)]methyl}acetamide], which “Mean AC1.4” value is on record?
The value was “D (D=>20 uM)”.

For CC(C)(Nc1ncc(-c2cccc(C(N)=O)c2)cn1)c1cccc(OC(F)F)n1 [3-[2-({1-[6-(difluoromethoxy)(2-pyridyl)]-isopropyl}amino)pyrimidin-5-yl]benzamide], which “Mean AC1.4” value is on record?
Its value is “A (A=<1 uM)”.

NC(=O)c1ccc(F)c(-c2cnc(NCC3(c4ncccc4F)CC(F)C3)nc2)c1 (stereo not shown) [4-fluoro-3-[2-({[3-fluoro-1-(3-fluoro(2-pyridyl))cyclobutyl]methyl}amino)pyrimidin-5-yl]benzamide] was tested. Which “Mean AC1.4” value did it give?
The value was “A (A=<1 uM)”.

For CC(C)(Nc1ncc(-c2nc(C(=O)O)co2)cn1)c1ncccc1Cl [2-(2-{[1-(3-chloro(2-pyridyl))-isopropyl}amino}pyrimidin-5-yl)-1,3-oxazole-4-carboxylic acid], which “Mean AC1.4” value is on record?
The value was “D (D=>20 uM)”.

For CC(C)(Nc1ncc(-n2cc(C(=O)NCCC(N)=O)cn2)cn1)c1ncccc1Cl [N-(2-carbamoylethyl)[1-(2-{[1-(3-chloro)(2-pyridyl))-isopropyl]amino}pyrimidin-5-yl)pyrazol-4-yl]carboxamide], which “Mean AC1.4” value is on record?
The value was “D (D=>20 uM)”.

Which “Mean AC1.4” value does the source give for CC(C)(Nc1ncc(-c2cc(CC(N)=O)ccc2F)cn1)c1ncccc1F [2-[4-fluoro-3-(2-{[1-(3-fluoro(2-pyridyl))-isopropyl]amino}pyrimidin-5-yl)phenyl]acetamide] here?
Its value is “B (B=1-10 uM)”.

With Oc1ccc(-c2cnc(NC[C@]3(c4ncccc4F)C[C@H](F)C3)nc2)cn1 [5-[2-({[3-fluoro-1-(3-fluoro(2-pyridyl))cyclobutyl]methyl}amino)pyrimidin-5-yl]pyridin-2-ol] as the molecule, how does the “Mean AC1.4” value read?
Its value is “D (D=>20 uM)”.

How did the “Mean AC1.4” value turn out when CC(C)(Nc1ncc(-n2cc(C(=O)NCCO)cn2)cn1)c1ncccc1Cl [[1-(2-{[1-(3-chloro(2-pyridyl))-isopropyl]amino}pyrimidin-5-yl)pyrazol-4-yl]-N-(2-hydroxyethyl)carboxamide] was run?
The value was “D (D=>20 uM)”.

CC(C)(Nc1ncc(Br)cn1)c1ccc(F)cc1 [(5-bromopyrimidin-2-yl)[1-(4-fluorophenyl)-isopropyl]amine] was tested. Which “Mean AC1.4” value did it give?
Its value is “C (C=10-20 uM)”.

For NC(=O)c1cnc(NC2(c3ncccc3F)CCC2)nc1 [2-{[(3-fluoro-2-pyridyl)cyclobutyl]amino}pyrimidine-5-carboxamide], which “Mean AC1.4” value is on record?
Its value is “D (D=>20 uM)”.

For NCc1cnc(-c2cnc(NCC3(c4ncccc4F)CCC3)nc2)s1 [{5-[5-(aminomethyl)(1,3-thiazol-2-yl)]pyrimidin-2-yl}{[(3-fluoro(2-pyridyl))cyclobutyl]methyl}amine], which “Mean AC1.4” value is on record?
The value was “C (C=10-20 uM)”.

For NC(=O)c1ccc(F)c(-c2cnc(NCC3(c4ncccc4F)CCC3)nc2)c1 [4-fluoro-3-[2-({[(3-fluoro(2-pyridyl))cyclobutyl]methyl}amino)pyrimidin-5-yl]benzamide], which “Mean AC1.4” value is on record?
The value was “A (A=<1 uM)”.

How did the “Mean AC1.4” value turn out when CC(C)(Nc1ncc(-c2ncc(C(N)=O)s2)cn1)c1ncccc1F [2-(2-{[1-(3-fluoro(2-pyridyl))-isopropyl]amino}pyrimidin-5-yl)-1,3-thiazole-5-carboxamide] was run?
The value was “D (D=>20 uM)”.

CC(=O)NCc1ccc(-c2cnc(NC(C)(C)c3ncccc3F)nc2)cc1 [N-{[4-(2-{[1-(3-fluoro(2-pyridyl))-isopropyl}amino}pyrimidin-5-yl)phenyl]methyl}acetamide] was tested. Which “Mean AC1.4” value did it give?
Its value is “D (D=>20 uM)”.

How did the “Mean AC1.4” value turn out when CC(C)(Nc1ncc(-c2cc(C(N)=O)ncn2)cn1)c1ncccc1Cl [6-(2-{[1-(3-chloro(2-pyridyl))-isopropyl]amino}pyrimidin-5-yl)pyrimidine-4-carboxamide] was run?
The value was “B (B=1-10 uM)”.

How did the “Mean AC1.4” value turn out when NC(=O)Cc1cnc(-c2cnc(NCC3(c4ncccc4Cl)CCC3)nc2)s1 [2-{2-[2-({[(3-chloro-2-pyridyl)cyclobutyl]methyl}amino)pyrimidin-5-yl]-1,3-thiazol-5-yl}acetamide] was run?
The value was “A (A=<1 uM)”.

For CC(C)(CNc1ncc(-c2cccc(C(N)=O)c2)cn1)c1ccc(F)cc1 [3-(2-{[2-(4-fluorophenyl)-2-methylpropyl]amino}pyrimidin-5-yl)benzamide], which “Mean AC1.4” value is on record?
Its value is “A (A=<1 uM)”.

CCOC(=O)c1csc(-c2cnc(NCC3(c4ncccc4F)CCC3)nc2)n1 [ethyl 2-[2-({[(3-fluoro-2-pyridyl)cyclobutyl]methyl}amino)pyrimidin-5-yl]-1,3-thiazole-4-carboxylate] was tested. Which “Mean AC1.4” value did it give?
Its value is “D (D=>20 uM)”.

With CC(C)(Nc1ncc(-c2ccc(C(N)=O)s2)cn1)c1ncccc1Cl [5-(2-{[1-(3-chloro(2-pyridyl))-isopropyl]amino}pyrimidin-5-yl)thiophene-2-carboxamide] as the molecule, how does the “Mean AC1.4” value read?
The value was “B (B=1-10 uM)”.
